Data set [1] is described as follows: Crystallographic x-ray diffraction (XRD) ice formation assay. The conditions noted are these: for reduction of necessary EG concentration while preventing ice formation (ice ring scores): XRD, EG 15-30% (v/v), peptoid 1 and 5 mg/mL. In kind it is physicochemical. Here is the method:
In order to increase the throughput of library analysis, a crystallographic x-ray diffraction (XRD) technique was used to evaluate ice crystal formation. For these experiments, the compounds named “Compound 2,” “Compound 8,” “Compound 10,” “Compound 11,” “Compound 12,” “Compound 13,” and “Compound 58” were tested. Compound 58 is similar to Compound 12, except that an arginine amino acid has been appended to the N-terminal end.
For these experiments, EG concentrations between 15% and 30% (v/v) were used. Typically, EG, DMSO, and other cryoprotectants are used during XRD sample analysis at concentrations of 35-40% (v/v) to vitrify solutions and avoid diffraction interference from ice crystals. Concentrations of 1 and 5 mg/mL of the peptoid and peptoid-peptide compounds were used. FIGS. 3A, 3B, and 3C illustrate exemplary XRD data under conditions of complete vitrification, partial vitrification with the presence of cubic ice, and freezing ([…]), respectively. FIG. 3D provides ice rings scores for a variety of EG concentrations and two concentrations of Compounds 2, 8, and 12.
“IceRing1” and “IceRing2” refer to ice formation scores, which range between 0 (no ice formation) and 15 (large ice formation).
The sample containing Compound 12 at a concentration of 5 mg/mL (0.5% (w/v)) and EG at a concentration of 17.5% (v/v) in water was ice-free after flash freezing. […] In the figures, black spots and rings represent ice crystals.

Data set [2] can be described thus: Larger volume flash freeze, rewarming and −20° C. storage assay. In kind it is physicochemical. The conditions noted are these: 22.5% EG. As for the experimental part:
In order to test the usefulness of compositions of the present invention at larger scales, experiments were performed using solution volumes that are similar to volumes used for standard egg and stem cell preservation. For these experiments, two samples, one containing 22.5% EG and buffer only, and another containing 22.5% EG and 5 mg/ml (0.5% w/v) of Compound 12 and buffer, were flash frozen in liquid nitrogen. […] The rewarming of the solutions in a 37° C. water bath led to an unexpected and beneficial result. The Compound 12 solution bypassed devitrification in less than 2 seconds upon rewarming (FIG. 6B, right), whereas chunks of ice were seen floating in the control sample (FIG. 6B, left) after 20 seconds. Condensation was seen on each of the tubes because the tubes were actually still much below room temperature.

Data set [3] concerns HEK 293 cell line. Put plainly: Cytotoxicity assay (MTT). In kind it is cell-based, human. Here is the method: A Tecan Genesis Robotic Workstation was used to prepare solutions in 96- and 384-well plates. Solutions contained culture media, buffers, a cryoprotectant composition of the present invention (Compound 12) or DMSO. Solutions were adjusted to the desired pH. Serial dilutions were performed to obtain solutions containing various concentrations of Compound 12 and DMSO. Control experiments were performed using only culture media.
For these experiments, cells were seeded at low density (i.e., 10% confluence), exposed to solutions containing Compound 12 or DMSO, and placed in a 37° C. incubator. The cells were allowed to grow until control cells that were treated only with empty vehicle approached 70% confluence (typically about 3 to 5 days). Assessment for compound cytotoxicity was via MTT assay.

Data set [4] concerns HEK 293 cells. Description: Cryopreservation assay, flash freezing in liquid nitrogen, Calcein AM viability. In kind it is cell-based, human. Here is the method: Initial cryopreservation assays were performed using very simple solutions, with and without the addition of Compound 12, in order to minimize confounding outside factors. For this first set of experiments, two sample solutions were prepared. The first sample solution contained simple buffer and ethylene glycol (EG) at a concentration of 22.5% (v/v), and the second sample solution contained simple buffer, EG (22.5% (v/v)), and 5 mg/mL (0.5% (w/v)) of Compound 12.
HEK 293 cells were grown until 70% confluent, then treated with trypsin to remove adhesion proteins and yield free floating cells. Cells were counted using a hemocytometer and sample cell concentrations were adjusted to final concentrations of 10,000 cells per microliter. Cells were then compressed into tight pellets by centrifugation, and each sample was subsequently mixed with 20 μL of one of the sample solutions. Samples were then flash frozen by immersion in liquid nitrogen, followed by rewarming in a 37° C. water bath. After the freeze-thaw process, cells were suspended in a 400× volume of culture media for recovery. The positive control sample was treated with culture media at 37° C. and not subjected to the freeze-thaw process. The negative control sample was treated with culture media only during the freeze-thaw process. After recovery, cells were stained with Calcein AM for 30 minutes and cell viability was measured using a fluorescence plate reader.
A second set of experiments was performed to evaluate the cryopreservation potential of a formulation that contained 5 mg/mL of Compound 12 plus a mixture of glycols, disaccharides, and a general buffer. Post-thaw survival following vitrification in liquid nitrogen was evaluated as described above.

The conditions of data set [5]: MilliQ water, slow cooled, −20° C., one hour; peptoid 9 mM, EG 160 mM. Here is the method:
In this experiment, four water-based samples were prepared in capillary tubes containing MilliQ purified water. One sample contained only water, and another sample contained 160 mM ethylene glycol (EG). The other two samples each contained a peptoid polymer at 9 mM. One of the peptoid polymer samples contained the peptoid polymer called “Compound 1,” while the other sample contained the peptoid polymer called “Compound 10.” The sequences of the peptoid polymers are as follows:
After sample preparation, all samples were slow cooled and incubated at −20° C. on a Peltier cooled plate. After one hour, samples were removed and immediately photographed using a digital camera attached to a 180× Stereo Zoom microscope (FIG. 2A).

Here are results for 5 compounds from patent US11564388B2, “Supercooling methods for preservation of biological samples” (X-Therma, Inc., priority 2017, dated 2023).

“Also recorded” adds a separate entry of the source.

With `CCC(C)NCC(=O)N(CC(=O)N(CC(=O)N(CC(=O)N(CC(=O)N(CC(=O)N(CC(=O)N(CC(=O)N(CC(=O)N(CC(N)=O)CC(C)O)C(C)CC)C(C)CC)C(C)CC)CC(C)O)CC(C)O)CC(C)O)C(C)CC)C(C)CC` (stereo not drawn) [Compound 2, Nsb-Nsb-Nsb-Nhp-Nhp-Nhp-Nsb-Nsb-Nsb-Nhp], the “reduction of necessary EG concentration while preventing ice formation (ice ring scores)” value (shortened to “reduction”) in data set [1] is “significantly reduced necessary EG concentrations while preventing ice formation”.
As for `CCC(C)NCC(=O)N(CC(=O)N(CC(=O)N(CC(=O)N(CC(=O)N(CC(=O)N(CC(=O)N(CC(=O)N(CC(=O)N(CC(N)=O)CC(C)O)CC(C)O)CC(C)O)C(C)CC)CC(C)O)CC(C)O)CC(C)O)CC(C)O)CC(C)O` (stereo not drawn) [Compound 8, Nsb-Nhp-Nhp-Nhp-Nhp-Nhp-Nsb-Nhp-Nhp-Nhp], the “reduction” value in data set [1] is “significantly reduced necessary EG concentrations while preventing ice formation”.
For `CCC(C)NCC(=O)N(CC(=O)N(CC(=O)N(CC(=O)N(CC(=O)N(CC(=O)N(CC(=O)N(CC(=O)N(CC(=O)N(CC(N)=O)C(C)CC)C(C)CC)CC(C)O)CC(C)O)C(C)CC)C(C)CC)CC(C)O)CC(C)O)C(C)CC` (stereo not drawn) [Compound 12, Nsb-Nsb-Nhp-Nhp-Nsb-Nsb-Nhp-Nhp-Nsb-Nsb], in data set [2] (buffer, 5 mg/ml (0.5% w/v)), the “vitrification on flash freezing in liquid nitrogen” value is reported as “complete vitrification with no ice formation; also recorded: vitrified”. Besides, the “state after overnight in −20° C. freezer” value in data set [2] (100 μL, 5 mg/ml) is reported as “remained unfrozen”. Moreover, the “ice formation after flash freezing” value in data set [1] (5 mg/mL (0.5% (w/v)) with EG 17.5% (v/v) in water, stream of liquid nitrogen vapor) was “ice-free”. Moreover, the “anti-icing effect in comparison to EG at the same molar concentration” value in data set [1] (5 mg/mL with EG 17.5% (v/v)) amounted to 500 times. In data set [1], the “reduction” value is reported as “significantly reduced necessary EG concentrations while preventing ice formation”. Further, the “toxicity at the concentration that prevents ice formation” value in data set [3] (0.5% w/v) is reported as “did not show toxicity”. Moreover, the “toxicity at four times the ice-preventing concentration” value in data set [3] (four times greater than 0.5% w/v) is “did not show significant toxicity”. Moreover, in data set [3] (serial dilutions, 37° C., about 3 to 5 days), the “toxicity compared with culture media alone” value is “did not significantly deviate from the that of culture media alone”. Also, in data set [4] (buffer, EG 22.5% (v/v), 5 mg/mL, liquid nitrogen), the “vitrification of the cell sample during the freezing process” value is on record as “complete vitrification without ice formation”. In addition, the “cell survival compared with EG alone” value in data set [4] (buffer, EG 22.5% (v/v), 5 mg/mL, viability 12 hours post-thaw) is recorded as “greatly improved cell survival”. The “post-thaw survival of the cells” value in data set [4] (vitrified with liquid nitrogen, viability 16 hours post-thaw, Compound 12 at 5 mg/mL plus glycols, disaccharides, general buffer) is 98%.
On to `C[S+](C)[O-]` [DMSO, dimethyl sulfoxide, reference compound], for which the “concentration at which warm survival for an extended period was not allowed” value in data set [3] (37° C.) is “above 0.5 % (v/v)”.
`OCCO` [EG, ethylene glycol]: the ice crystal formation entry in data set [5] is “significant ice crystal formation”.
